Measured values: the NIST ThermoML archive (doi:10.1021/je900969u)
± gives the expanded uncertainty stated by the source.

Tests used:
[1] = xn = mol fraction of the nth substance listed; conditions: 101 kPa, Liquid
[2] = 101 kPa, Liquid

CC1CCCCC1 [methylcyclohexane] + CN1CCNCC1
[1], x2 = 0
Conditions	mass density [kg/m3]	viscosity [mPa·s]
298.15 K	765 ± 1.9	0.719 ± 0.02
303.15 K	760.67 ± 2	0.655 ± 0.019
313.15 K	751.94 ± 2	0.573 ± 0.017

CN1CCNCC1 [N-methylpiperazine] + CC1CCCCC1
[1]
Conditions	mass density, 298.15 K [kg/m3]	mass density, 303.15 K [kg/m3]	mass density, 313.15 K [kg/m3]	viscosity, 298.15 K [mPa·s]	viscosity, 303.15 K [mPa·s]	viscosity, 313.15 K [mPa·s]
x1 = 0.0988	775.01 ± 1.8	770.65 ± 1.9	761.89 ± 1.9	0.716 ± 0.02	0.676 ± 0.019	0.582 ± 0.017
x1 = 0.1972	785.84 ± 1.7	781.44 ± 1.7	772.64 ± 1.8	0.751 ± 0.02	0.698 ± 0.019	0.604 ± 0.017
x1 = 0.297	797.52 ± 1.6	793.12 ± 1.6	784.26 ± 1.6	0.801 ± 0.021	0.73 ± 0.02	0.634 ± 0.018
x1 = 0.3964	811.57 ± 1.5	805.63 ± 1.5	796.74 ± 1.5	0.867 ± 0.023	0.776 ± 0.021	0.674 ± 0.018
x1 = 0.4953	822.93 ± 1.4	818.51 ± 1.4	809.59 ± 1.4	0.945 ± 0.025	0.84 ± 0.022	0.725 ± 0.019
x1 = 0.5948	836.59 ± 1.3	832.17 ± 1.3	823.26 ± 1.3	1.057 ± 0.027	0.918 ± 0.024	0.791 ± 0.021
x1 = 0.6952	850.68 ± 1.1	846.26 ± 1.2	837.34 ± 1.2	1.19 ± 0.03	1.022 ± 0.026	0.868 ± 0.022
x1 = 0.7969	865.9 ± 1.1	861.49 ± 1.1	852.58 ± 1.1	1.362 ± 0.034	1.164 ± 0.029	0.97 ± 0.024
x1 = 0.8977	881.36 ± 0.95	876.96 ± 0.97	868.08 ± 1	1.585 ± 0.039	1.326 ± 0.032	1.087 ± 0.027
x1 = 1	899.28 ± 0.85	894.9 ± 0.87	886.07 ± 0.91	1.856 ± 0.045	1.544 ± 0.037	1.25 ± 0.031

CC1CCCCC1 [methylcyclohexane]
[2]
Conditions	mass density [kg/m3]	viscosity [mPa·s]
298.15 K	765 ± 1.9	0.719 ± 0.02
303.15 K	760.67 ± 2	0.655 ± 0.019
313.15 K	751.94 ± 2	0.573 ± 0.017

CCCCCCC [heptane] + CN1CCNCC1
[1], x2 = 0
Conditions	mass density [kg/m3]	viscosity [mPa·s]
298.15 K	679.72 ± 0.72	0.404 ± 0.012
303.15 K	675.46 ± 0.72	0.383 ± 0.012
313.15 K	666.84 ± 0.73	0.342 ± 0.011

CCCCCCC [heptane]
[2]
Conditions	mass density [kg/m3]	viscosity [mPa·s]
298.15 K	679.72 ± 0.72	0.404 ± 0.012
303.15 K	675.46 ± 0.72	0.383 ± 0.012
313.15 K	666.84 ± 0.73	0.342 ± 0.011

CN1CCNCC1 [N-methylpiperazine] + CCCCCCC
[1]
Conditions	mass density, 298.15 K [kg/m3]	mass density, 303.15 K [kg/m3]	mass density, 313.15 K [kg/m3]	viscosity, 298.15 K [mPa·s]	viscosity, 303.15 K [mPa·s]	viscosity, 313.15 K [mPa·s]
x1 = 0.1006	695.86 ± 0.68	691.57 ± 0.69	682.9 ± 0.7	0.429 ± 0.013	0.395 ± 0.012	0.36 ± 0.011
x1 = 0.2012	713.24 ± 0.65	708.91 ± 0.65	700.2 ± 0.66	0.466 ± 0.013	0.438 ± 0.013	0.389 ± 0.012
x1 = 0.3006	731.62 ± 0.61	727.27 ± 0.61	718.49 ± 0.63	0.511 ± 0.014	0.481 ± 0.014	0.424 ± 0.012
x1 = 0.4014	751.5 ± 0.57	747.13 ± 0.57	738.3 ± 0.59	0.571 ± 0.016	0.533 ± 0.015	0.467 ± 0.013
x1 = 0.5007	772.43 ± 0.53	768.04 ± 0.53	759.18 ± 0.54	0.648 ± 0.017	0.599 ± 0.016	0.527 ± 0.015
x1 = 0.5996	794.38 ± 0.48	789.99 ± 0.49	781.1 ± 0.5	0.756 ± 0.02	0.699 ± 0.018	0.603 ± 0.016
x1 = 0.7	818.02 ± 0.44	813.61 ± 0.45	804.71 ± 0.46	0.905 ± 0.023	0.815 ± 0.021	0.691 ± 0.018
x1 = 0.7979	842.73 ± 0.39	838.32 ± 0.4	829.43 ± 0.41	1.094 ± 0.027	0.995 ± 0.025	0.826 ± 0.021
x1 = 0.9036	871.01 ± 0.34	866.62 ± 0.35	857.75 ± 0.36	1.474 ± 0.036	1.234 ± 0.03	1.024 ± 0.026
x1 = 1	899.28 ± 0.29	894.9 ± 0.3	886.07 ± 0.31	1.856 ± 0.045	1.544 ± 0.037	1.25 ± 0.031

CN1CCNCC1 [N-methylpiperazine]
[2]
Conditions	mass density [kg/m3]	viscosity [mPa·s]
298.15 K	899.28 ± 0.85	1.856 ± 0.045
303.15 K	894.9 ± 0.87	1.544 ± 0.037
313.15 K	886.07 ± 0.91	1.25 ± 0.031
